Data taken from patent publication US12006289B2, “Potassium channel inhibitors” (Saniona A/S, priority 2019, dated 2024).

How the values were obtained:
[1] = Solubility of compounds in 50 mM phosphate buffer pH 7.4 by HPLC; type: physicochemical
Experimental: Solubility is calculated using the following formula: […]

[2] = biological target: erythrocyte KCa3.1 channels (Homo sapiens (Human), UniProt O15554); test: Erythrocyte KCa3.1 assay; type: cell-based; details: human erythrocytes, A23187-activated, 37° C.; read-out: RBC K (in vitro) Human IC50
Experimental: Human blood was drawn from healthy human volunteers in a standard heparinized blood sampling vial (Vacutainer, Li/heparin, BD Bioscience, Plymouth, UK). The erythrocytes were packed by centrifugation, and the plasma and buffy coat were removed by aspiration. Erythrocytes were washed three times in the experimental salt solution and then stored at 0° C. until use. Blood samples from NMRI mice or from Wistar rats were treated similarly. The methodological principle is outlined in Macey et al. (1978) and further described in Strøbæk et al. (2013). Activation of the erythrocyte KCa3.1 channels were obtained by addition of the Ca^2+ ionophore A23187, which causes synchronized hyperpolarization, which is reported as a CCCP-mediated shift in the unbuffered extracellular pH of the erythrocyte suspension. Standard procedure: 3 mL unbuffered experimental salt solution (in mM: 2 KCl, 154 NaCl, 0.05 CaCl2) was heated to 37° C. with stirring. Packed erythrocytes were added (50 μL, final cytocrit 1.5%), and the extracellular pH (pHo) followed with a glass/calomel (pHG200-8/REF200, Radiometer, Denmark) electrode pair. CCCP (3 μL, final concentration 20 μM) was added followed by varying concentrations of test compounds (DMSO concentration constant). After pH stabilization at ˜7.2, A23187 (3 μL, final concentration 0.33 μM) was added to initiate the experiment. After the peak hyperpolarization was attained, the intracellular pH (pHi constant during the experiment) was found by haemolysing the erythrocytes via addition of 100 μL of Triton-X100.
The erythrocyte membrane potential, Vm, was calculated according to: Vm=−61.5 mV×(pHo−pHi) and the fractional remaining Ca^2+-activated K^+-conductance at the concentration C of blocker, fGK(C), was calculated from
[formula] where the K^+ equilibrium potential EK=−107 mV, the Cl^− equilibrium potential ECl=−12 mV and the Vm(0) and Vm(C) are the peak hyperpolarizations in the control and in the presence of a concentration of C of blocker respectively.
IC50 values for compounds were calculated from a plot of fGK(C) versus C by a fit to the Hill equation, using a custom program written in the IGOR-Pro software (WaveMetrics, Lake Oswego, OR, USA). All IC50-values are reported in μM.

mouse model of ARDS = details: treatment with classical KCa3.1 inhibitors; cited from earlier work
[3] = statement in words; cited from earlier work
[4] = 50 mM potassium phosphate buffer pH 7.40, 16 hr at ~25° C., 1600 μM incubation concentration

| SMILES | IC50 [2] [nM] | Measured Solubility in pH 7.4 phosphate buffer (mg/ml) [1, 4] [mg/ml] | Measured Solubility in pH 7.4 phosphate buffer (μM) (rounded) [1, 4] | other results |
| --- | --- | --- | --- | --- |
| COC(=O)N(CC1(N)CC1)C1(c2ccc(F)c(C(F)(F)F)c2)CC1 [[3], Methyl ((1-aminocyclopropyl)methyl)(1-(4-fluoro-3-(trifluoromethyl)phenyl)cyclopropyl) carbamate] | 160 | 0.5599 | 1600 |  |
| COC(=O)N(C[C@@H]1CCCN1C)C1(c2ccc(F)c(C(F)(F)F)c2)CC1 [[27], Methyl (S)-(1-(4-fluoro-3-(trifluoromethyl)phenyl)cyclopropyl) ((1-methylpyrrolidin-2-yl)methyl) carbamate] | 300 | 0.5918 | 1600 |  |
| Clc1ccccc1C(c1ccccc1)(c1ccccc1)n1cccn1 [TRAM-34] |  |  |  | Gas exchange in mouse model of ARDS (mouse model of ARDS): improved gas exchange; Water solubility [3]: extremely low water solubility |
| CCOC(=O)N(C[C@@H]1CCCN1C)C1(c2ccc(F)c(C(F)(F)F)c2)CC1 [[35], Ethyl (S)-(1-(4-fluoro-3-(trifluoromethyl)phenyl)cyclopropyl)((1-methylpyrrolidin-2-yl)methyl) carbamate] | 110 | 0.5679 | 1500 |  |
| CC(C)OC(=O)N(C[C@@H]1CCCN1)C1(c2ccc(F)c(C(F)(F)F)c2)CC1 [[44], Isopropyl (S)-(1-(4-fluoro-3-(trifluoromethyl)phenyl)cyclopropyl)(pyrrolidin-2-ylmethyl)carbamate] | 200 |  |  | Measured Solubility in pH 7.4 phosphate buffer (μM) (rounded) ([1]; 16 h, pH 7.4): 1600 μM |
| COC(=O)N(CC(C)(C)N)C1(c2cc(C(F)(F)F)c(F)cn2)CC1 [[17], Methyl (2-amino-2-methylpropyl)(1-(5-fluoro-4-(trifluoromethyl)pyridin-2-yl)cyclopropyl) carbamate] | 400 | 0.5636 | 1500 |  |
| N[C@H]1CCC[C@H]1NC1(c2ccc(F)c(C(F)(F)F)c2)CC1 [[52], (1R,2S)—N1-(1-(4-fluoro-3-(trifluoromethyl)phenyl)cyclopropyl)-cyclopentane-1,2-diamine] | 93 |  |  |  |
| O=C1CSc2ccccc2N1Cc1cccc(C(F)(F)F)c1 [NS6180, 4-[[3-(Trifluoromethyl)-phenyl]methyl]-2H-1,4-benzothiazin-3(4H)-one, reference compound] |  |  |  | Measured Solubility in pH 7.4 phosphate buffer (mg/ml) ([1]; 16 h, pH 7.4): 0.0009 mg/ml |
| CS(=O)(=O)N(C[C@@H]1CCCN1)C1(c2ccc(F)c(C(F)(F)F)c2)CC1 [[36], (S)—N-(1-(4-fluoro-3-(trifluoromethyl)phenyl)cyclopropyl)-N-(pyrrolidin-2-ylmethyl) methanesulfonamide] | 320 | 0.3218 | 800 |  |
| CS(=O)(=O)N(C[C@H]1CCCN1)C1(c2ccc(F)c(C(F)(F)F)c2)CC1 [[41], (R)—N-(1-(4-fluoro-3-(trifluoromethyl)phenyl)cyclopropyl)-N-(pyrrolidin-2-ylmethyl) methane sulfonamide] | 380 |  |  |  |
| COC(=O)N(CC1CCN1)C1(c2ccc(F)c(C(F)(F)F)c2)CC1 (stereo not drawn) [[26], Methyl (azetidin-2-ylmethyl)(1-(4-fluoro-3-(trifluoromethyl)phenyl)cyclopropyl)carbamate] | 210 |  |  |  |
| NC(=O)C(c1ccccc1)(c1ccc(F)cc1)c1ccc(F)cc1 [senicapoc] |  |  |  | Gas exchange in mouse model of ARDS (mouse model of ARDS): improved gas exchange; Water solubility [3]: extremely low water solubility |
| COC(=O)N(CC(C)(C)NC(C)=O)C1(c2ccc(F)c(C(F)(F)F)c2)CC1 [[24], Methyl (2-acetamido-2-methylpropyl)(1-(4-fluoro-3-(trifluoromethyl)phenyl)cyclopropyl)carbamate] | 310 |  |  |  |
| CC(C)(N)CN(CC1CC1)C1(c2ccc(F)c(C(F)(F)F)c2)CC1 [[8], N1-(cyclopropylmethyl)-N1-(1-(4-fluoro-3-(trifluoromethyl)phenyl)cyclopropyl)-2-methyl propane-1,2-diamine] | 14 |  |  | Measured Solubility in pH 7.4 phosphate buffer (μM) (rounded) ([1]; 16 h, pH 7.4): 1500 μM |
| COC(=O)N(C[C@@H]1CCN1)C1(c2ccc(F)c(C(F)(F)F)c2)CC1 [[53], Methyl (S)-(azetidin-2-ylmethyl)(1-(4-fluoro-3-(trifluoromethyl)phenyl)-cyclopropyl)carbamate] | 360 |  |  | Measured Solubility in pH 7.4 phosphate buffer (μM) (rounded) ([1]; 16 h, pH 7.4): 1700 μM |

More lines, main results first:

| IC50 [2] [nM] | Measured Solubility in pH 7.4 phosphate buffer (mg/ml) [1, 4] [mg/ml] | Measured Solubility in pH 7.4 phosphate buffer (μM) (rounded) [1, 4] | SMILES | other results |
| --- | --- | --- | --- | --- |
| 400 |  |  | CN1CCC1CN(CC(C)(C)O)C1(c2ccc(F)c(C(F)(F)F)c2)CC1 (stereo not drawn) [[16], 1-((1-(4-fluoro-3-(trifluoromethyl)phenyl)cyclopropyl)((1-methylazetidin-2-yl)methyl)amino)-2-methylpropan-2-ol] | Measured Solubility in pH 7.4 phosphate buffer (μM) (rounded) ([1]; 16 h, pH 7.4): 1600 μM |
| 330 | 0.5409 | 1600 | COC(=O)N(CCN(C)C)C1(c2ccc(F)c(C(F)(F)F)c2)CC1 [[1], Methyl N-(2-(dimethylamino)ethyl)-N-(1-(4-fluoro-3-(trifluoromethyl)phenyl)cyclopropyl) carbamate] |  |
| 86 |  |  | COC(=O)N(CC(C)(C)N)C1(c2ccc(F)c(C(F)(F)F)c2)CC1 [[2], Methyl (2-amino-2-methylpropyl)(1-(4-fluoro-3-(trifluoromethyl)phenyl)cyclopropyl)carbamate] | Measured Solubility in pH 7.4 phosphate buffer (μM) (rounded) ([1]; 16 h, pH 7.4): 1600 μM |
| 81 |  |  | COC(=O)N(C[C@H]1CCCN1C)C1(c2ccc(F)c(C(F)(F)F)c2)CC1 [[31], Methyl (R)-(1-(4-fluoro-3-(trifluoromethyl)phenyl)cyclopropyl)((1-methylpyrrolidin-2-yl)methyl)carbamate] | Measured Solubility in pH 7.4 phosphate buffer (μM) (rounded) ([1]; 16 h, pH 7.4): 1500 μM |
| 340 | 0.6118 | 1500 | COC(=O)N(C[C@H]1COCCN1)C1(c2ccc(F)c(C(F)(F)F)c2)CC1 [[42], Methyl (S)-(1-(4-fluoro-3-(trifluoromethyl)phenyl)cyclopropyl)(morpholin-3-ylmethyl) carbamate] |  |
| 18 |  |  | CC(C)(N)CN(C1CCC1)C1(c2cccc(C(F)(F)F)c2)CC1 [[18], N1-cyclobutyl-2-methyl-N1-(1-(3-(trifluoromethyl)phenyl)cyclopropyl)propane-1,2-diamine] |  |
| 310 |  |  | COC(=O)N(C1CNC1)C1(c2ccc(F)c(C(F)(F)F)c2)CC1 [[5], Methyl azetidin-3-yl(1-(4-fluoro-3-(trifluoromethyl)phenyl)cyclopropyl)carbamate] |  |
| 120 |  |  | COC(=O)N(CC(C)(C)NO)C1(c2ccc(F)c(C(F)(F)F)c2)CC1 [[33], Methyl (1-(4-fluoro-3-(trifluoromethyl)phenyl)cyclopropyl)(2-(hydroxyamino)-2-methylpropyl)carbamate] |  |
